Measured values published in paper PMC9311539, “Antibacterial Activity against Clinical Isolates and In Vivo Efficacy of Coralmycins” (Antibiotics, 2022).
In brackets after ≈: the same amount, converted by molar mass. Entries after “also recorded” stand apart in the source; their conditions may differ. Read-outs that look alike come from different tables or passages of the source.

Columns and labels:
S. pneumoniae ATCC49619 [1] = test: Time-kill assay, S. pneumoniae ATCC49619; format: cell-based, Streptococcus pneumoniae
Protocol: (§1) Time-kill analysis was performed by the NCCLS M26-A method. The test organisms (S. aureus Giorgio, S. pneumoniae ATCC49619, MRSA CCARM 3167, and VRE 3) incubated in CAMHB for 18 h at 35 °C were diluted to 10^5 CFU/mL with fresh CAMHB, and the diluted cultures were preincubated for 2 h. For S. pneumoniae culture, 5% sheep blood (Hanil Comed, Seongnam, Korea) was added. […] Culture aliquots (0.1 mL) were removed after 0, 2, 4, 6 and 24 h of incubation, and serial 10-fold dilutions were prepared in saline as needed. The numbers of viable cells were determined on drug-free MHA plates after 20 h of incubation. A compound was considered bactericidal if the original inoculum was reduced by 3 log CFU/mL (99.9%) at each concentration or was considered bacteriostatic if the inoculum was reduced by 0–3 log CFU/mL.

MRSA CCARM 3167 [2] = test: Time-kill assay, MRSA CCARM 3167; format: cell-based, Staphylococcus aureus
Protocol: as §1

VRE 3 [3] = test: Time-kill assay, VRE 3; format: cell-based, vancomycin-resistant Enterococcus
Protocol: as §1

S. aureus Giorgio [4] = test: Neutropenic mouse thigh infection model; format: in vivo, female ICR mice
Protocol: (§2) For the respiratory tract infection model, neutropenic mice were anesthetized and intranasally inoculated with a 50 μL suspension of S. pneumoniae ATCC49619 (4.4 × 10^8 CFU/mL). For the thigh infection model, the neutropenic mice were administered an intramuscular injection of a 100 μL suspension of S. aureus Giorgio (1 × 10^6 CFU/mL) into both thighs. For both models, four mice were included in each group. At 2 h after infection, two mice were sacrificed, and the infected thighs or lungs (n = 4) were excised to determine the initial bacterial levels. […] At 24 h after infection, the mice were sacrificed by cervical dislocation; their thighs or lungs were removed, homogenized, serially diluted with saline, and plated onto MHA to count the number of bacteria remaining. The number of viable bacterial cells (CFU) in the thighs or lungs of vehicle- and drug-treated mice was determined.

VRE 3 [5] = test: MIC against VRE 3; format: cell-based, vancomycin-resistant Enterococcus; details: Enterococcus, read-out: MIC
Protocol: (§3) The MICs of the antimicrobial agents were determined by a twofold microdilution broth method, as described by the Clinical and Laboratory Standards Institute. Briefly, test organisms were grown on Mueller–Hinton agar (MHA, BD Difco, Sparks, MD, USA) plates, subcultured into cation-adjusted Mueller–Hinton broth (CAMHB, BD Difco, Sparks, MD, USA), and incubated for 18 h at 35 °C. For S. pneumoniae culture, 5% sheep blood (Hanil Comed, Seongnam, Korea) was added. The cultured bacteria were diluted using phosphate-buffered saline (PBS) to achieve a bacterial cell density of approximately 5 × 10^6 CFU/mL. All test organisms were loaded into 96-well plates containing serial dilutions of the antimicrobial agents to achieve a concentration of 5 × 10^4 CFU/well. The plates were incubated at 35 °C for 18–20 h and examined for bacterial growth.

VRE = test: MIC, broth microdilution, clinical isolates: VRE; format: cell-based, vancomycin-resistant Enterococcus
Protocol: (§4) To assess the MICs for antibiotic susceptibility, Gram-positive bacteria isolated from human clinical specimens were obtained from several general hospitals in Seoul, Korea, during 2002–2018. Staphylococcus aureus Giorgio and Streptococcus pneumoniae ATCC49619 were used to test in vivo efficacies against […], in mice.
as §3

S. aureus Giorgio [6] = test: MIC against S. aureus Giorgio; format: cell-based, Staphylococcus aureus
Protocol: as §3

MRSA = test: MIC, broth microdilution, clinical isolates: MRSA; format: cell-based, Staphylococcus aureus
Protocol: as §4, §3

[7] = test system: CNS (coagulase-negative staphylococci); test: MIC, broth microdilution, clinical isolates: CNS; format: cell-based
Protocol: as §4, §3

[8] = test system: Vancomycin-sensitive E. faecalis; test: MIC, broth microdilution, clinical isolates: vancomycin-sensitive E. faecalis; format: cell-based, Enterococcus faecalis
Protocol: as §4, §3

S. pneumoniae ATCC49619 [9] = test: MIC against S. pneumoniae ATCC49619; format: cell-based; details: Streptococcus pneumoniae, ATCC 25922 / ATCC 49619, printed as S. pneumoniae ATCC 25922; read-out: MIC
Protocol: as §3

S. pneumoniae = test: MIC, broth microdilution, clinical isolates: S. pneumoniae; format: cell-based, Streptococcus pneumoniae
Protocol: as §4, §3

[10] = test system: Vancomycin-sensitive E. faecium; test: MIC, broth microdilution, clinical isolates: vancomycin-sensitive E. faecium; format: cell-based, Enterococcus faecium
Protocol: as §4, §3

S. aureus Giorgio [11] = test: Time-kill assay, S. aureus Giorgio; format: cell-based, Staphylococcus aureus
Protocol: as §1

MSSA = test: MIC, broth microdilution, clinical isolates: MSSA; format: cell-based; details: Staphylococcus aureus, 26 clinical isolates
Protocol: as §4, §3

MRSA CCARM 3167 [12] = test: MIC against MRSA CCARM 3167; format: cell-based; details: Staphylococcus aureus; read-out: MIC
Protocol: as §3

S. pneumoniae ATCC49619 [13] = test: Neutropenic mouse respiratory tract infection model; format: in vivo, female ICR mice
Protocol: as §2

[14] = second trial, s.c. 100 mg/kg bid

CO[C@@H](C(N)=O)[C@H](NC(=O)c1ccc(NC(=O)c2ccc([N+](=O)[O-])cc2)cc1)C(=O)Nc1ccc(C(=O)Nc2ccc(C(=O)Nc3ccc(C(=O)O)c(O)c3OC(C)C)c(O)c2OC(C)C)cc1 [Coralmycin A, coralmycin A]
time-kill activity (S. pneumoniae ATCC49619 [1]; 0.5× MIC (Figure S4)): bacteriostatic (considered bacteriostatic if the inoculum was reduced by 0–3 log CFU/mL)
time-kill activity (S. pneumoniae ATCC49619 [1]; 1× MIC): bactericidal (considered bactericidal if the original inoculum was reduced by 3 log CFU/mL (99.9%) at each concentration)
time-kill activity (S. pneumoniae ATCC49619 [1]; 2× and 4× MIC, 24 h): bactericidal (considered bactericidal if the original inoculum was reduced by 3 log CFU/mL (99.9%) at each concentration)
time-kill activity (MRSA CCARM 3167 [2]; 1× MIC): bactericidal (considered bactericidal if the original inoculum was reduced by 3 log CFU/mL (99.9%) at each concentration)
time-kill activity (MRSA CCARM 3167 [2]; 2× and 4× MIC, 24 h): bactericidal (considered bactericidal if the original inoculum was reduced by 3 log CFU/mL (99.9%) at each concentration)
time-kill activity (VRE 3 [3]; 1× MIC): bactericidal (considered bactericidal if the original inoculum was reduced by 3 log CFU/mL (99.9%) at each concentration)
time-kill activity (VRE 3 [3]; 2× and 4× MIC, 24 h): bactericidal (considered bactericidal if the original inoculum was reduced by 3 log CFU/mL (99.9%) at each concentration)
antibacterial effect in thigh infection model (S. aureus Giorgio [4]; 20 mg/kg bid): almost no antibacterial effect
antibacterial effect in thigh infection model (S. aureus Giorgio [4]; s.c. 4 and 20 mg/kg at 3 and 6 h after infection): almost no antibacterial effect
MIC (VRE 3 [5]): 0.5 µg/mL (≈ 0.534 µM)
MIC90 (VRE; 46 clinical isolates): 1 µg/mL (≈ 1.07 µM)
MIC50 (VRE; Enterococcus, VRE, 46 clinical isolates, read-out: MIC50): 0.5 µg/mL (≈ 0.534 µM)
MIC90 (VRE; Enterococcus, 46 VRE isolates, read-out: MIC90): 1 µg/mL (≈ 1.07 µM)
MIC (S. aureus Giorgio [6]): 0.003 µg/mL (≈ 0.00321 µM)
MIC (S. aureus Giorgio [6]; Staphylococcus aureus, read-out: MIC): 0.006 µg/mL (≈ 0.00641 µM)
MIC90 (MRSA; 42 clinical isolates): 1 µg/mL (≈ 1.07 µM)
MIC50 (MRSA; Staphylococcus aureus, MRSA, 42 clinical isolates, read-out: MIC50): 1 µg/mL (≈ 1.07 µM)
MIC90 (MRSA; Staphylococcus aureus, 42 MRSA isolates, read-out: MIC90): 1 µg/mL (≈ 1.07 µM)
MIC90 ([7]; 31 clinical isolates): 1 µg/mL (≈ 1.07 µM)
MIC50 ([7]; 31 clinical isolates, read-out: MIC50): 0.25 µg/mL (≈ 0.267 µM)
MIC90 ([7]; 31 coagulase-negative staphylococci isolates, read-out: MIC90): 1 µg/mL (≈ 1.07 µM)
MIC90 ([8]; 32 clinical isolates): 2 µg/mL (≈ 2.14 µM)
MIC50 ([8]; Enterococcus faecalis, 32 clinical isolates, read-out: MIC50): 1 µg/mL (≈ 1.07 µM)
MIC90 ([8]; vancomycin-sensitive Enterococcus faecalis, read-out: MIC90): 2 µg/mL (≈ 2.14 µM)
MIC (S. pneumoniae ATCC49619 [9]): 10 µg/mL (≈ 10.7 µM)
MIC90 (S. pneumoniae; 27 clinical isolates): 1 µg/mL (≈ 1.07 µM)
MIC90 (S. pneumoniae; Streptococcus pneumoniae, 27 S. pneumoniae isolates, read-out: MIC90): 1 µg/mL (≈ 1.07 µM)
MIC50 (S. pneumoniae; Streptococcus pneumoniae, 27 clinical isolates, read-out: MIC50): 0.25 µg/mL (≈ 0.267 µM)
MIC90 ([10]; 32 clinical isolates): 0.5 µg/mL (≈ 0.534 µM)
MIC50 ([10]; Enterococcus faecium, 32 clinical isolates, read-out: MIC50): 0.25 µg/mL (≈ 0.267 µM)
MIC90 ([10]; vancomycin-sensitive Enterococcus faecium, read-out: MIC90): 0.5 µg/mL (≈ 0.534 µM)
time-kill activity (S. aureus Giorgio [11]; 0.5× MIC (Figure S4)): bacteriostatic (considered bacteriostatic if the inoculum was reduced by 0–3 log CFU/mL)
time-kill activity (S. aureus Giorgio [11]; 1× MIC): bactericidal (considered bactericidal if the original inoculum was reduced by 3 log CFU/mL (99.9%) at each concentration)
time-kill activity (S. aureus Giorgio [11]; 2× and 4× MIC, 24 h): bactericidal (considered bactericidal if the original inoculum was reduced by 3 log CFU/mL (99.9%) at each concentration)
MIC50 (MSSA; read-out: MIC50): 0.5 µg/mL (≈ 0.534 µM)
MIC90 (MSSA; read-out: MIC90): 1 µg/mL (≈ 1.07 µM)
MIC (MRSA CCARM 3167 [12]): 0.01 µg/mL (≈ 0.0107 µM)
in vivo effect (bacteriostatic or bactericidal) (S. pneumoniae ATCC49619 [13]; 4 mg/kg bid s.c.): bacteriostatic effects; also recorded: static effect
in vivo effect (bacteriostatic or bactericidal) (S. pneumoniae ATCC49619 [13]; 20 mg/kg bid s.c.): bacteriostatic effects; also recorded: static effect
in vivo effect (bacteriostatic or bactericidal) (S. pneumoniae ATCC49619 [13]; 100 mg/kg bid s.c.): significant bactericidal effects
reduction of bacterial burden in the lungs compared to the 24-h control group (S. pneumoniae ATCC49619 [13]; first experiment, s.c. 4 mg/kg bid): 1.43 log10 CFU
reduction of bacterial burden in the lungs compared to the 24-h control group (S. pneumoniae ATCC49619 [13]; first experiment, s.c. 20 mg/kg bid): 1.81 log10 CFU
antibacterial effect in respiratory tract infection model (S. pneumoniae ATCC49619 [13]; first experiment, s.c. 4 and 20 mg/kg at 3 and 6 h after infection): significant antibacterial effects
reduction of bacterial burden in the lungs compared to the 24-h control group (S. pneumoniae ATCC49619 [13]; second trial, s.c. 4 mg/kg bid): 1.45 log10 CFU
reduction of bacterial burden in the lungs compared to the 24-h control group (S. pneumoniae ATCC49619 [13]; second trial, s.c. 20 mg/kg bid): 1.88 log10 CFU
reduction of bacterial burden in the lungs compared to the 24-h control group (S. pneumoniae ATCC49619 [13]; [14]): 3.02 log10 CFU
reduction of the starting bacterial burden compared to the 2-h control group (S. pneumoniae ATCC49619 [13]; [14]): 1.34 log10 CFU/lung
